Patent US10851073B2, “Protein tyrosine phosphatase inhibitors and methods of use thereof” (Calico Life Sciences LLC, priority 2019, dated 2020)

Key:
[1] = test system: MC-38 murine colon adenocarcinoma; test: In vivo efficacy in MC38 mouse tumor model
Method: Example 232. In Vivo Efficacy of PTPN2 Inhibitors in MC38 Mouse Tumor Model and Impact on Pharmacodynamic Markers
All experiments were conducted in compliance with AbbVie's Institutional Animal Care and Use Committee and the National Institutes of Health Guide for Care and Use of Laboratory Animals guidelines in a facility accredited by the Association for the Assessment and Accreditation of Laboratory Animal Care. C57Bl/6 female mice were obtained from Charles River (Wilmington, Mass.). The mice were group-housed 10 per cage. Food and water were available ad libitum. Animals were acclimated to the animal facilities for a period of at least one week prior to commencement of experiments. Animals were tested in the light phase of a 12-hour light: 12-hour dark schedule (lights on 0600 hours).
Tumor Cell Inoculation and Treatments.
Cells were grown to passage 3 in vitro. A total of 1×10^5 viable MC-38 cells were inoculated subcutaneously into the right flank of female C57Bl/6 mice (7-12 weeks old) on Day 0. The injection volume was 0.1 mL and was composed of a 1:1 mixture of S-MEM and Matrigel® (Corning, N.Y., USA). […] The mean tumor volume (TV) at size match was approximately 196±64 mm^3. Following size match, treatments were initiated on the same day. Dosing of mice was conducted orally, twice a day (BID) at 7 a.m. and 5 p.m. for 21 days. Mice were dosed (10 mg/kg/dose) with either Compound 118 or vehicle controls (n=15 mice/group). Compound 118 was formulated in 10% ethanol, 30% PEG-400 and 60% Phosal-50PG and was dosed at 10 mL/kg. Tumor volume was calculated three times weekly. Measurements of the length (L) and width (W) of the tumor were taken via electronic caliper and the volume was calculated according to the following equation: V=L×W^2/2 using Study Director Version 3.1.399.22 (Studylog Systems, Inc, CA, USA). Mice were euthanized when tumor volume was […] or skin ulcerations occurred. Tumor growth inhibition (TGI) was calculated as TGI=1−(Mean TVTimepoint(Treatment)/Mean TVTimepoint (Vehicle)) for each timepoint that tumor volumes were measured. Reported TGIMax is the largest TGI value for any timepoint that tumors volumes were collected for that treatment group.

[2] = test system: pSTAT5 in CD3+ T cells; test: pSTAT5 flow cytometry assay in mouse whole blood; type: in vivo
Method: pSTAT5 Flow Cytometry Assay in Mouse Whole Blood. Whole blood was drawn into EDTA powder coated tubes by cardiac puncture from mice on day 8 of dosing with Compound 118 (2 hours after the 16th dose). 90 μL of whole blood were stimulated with 10 μL of murine IL-2 to achieve a final concentration of 100 ng IL-2/mL (R&D Systems, Minneapolis, Minn., cat #402-ML) for 20 minutes at 37° C., 5% CO2. After stimulation, 1.8 mL of prewarmed BD Phosflow Lyse/Fix Buffer (BD Biosciences, San Jose, Calif.) was added for 20 minutes at 37° C. Cells were washed twice in FACS buffer (Dulbecco's PBS with 0.2% BSA) and incubated for 30 minutes on ice in cold Perm Buffer III (BD Biosciences, San Jose, Calif.). Cells were washed with FACS buffer and resuspended in 50 μL of FACS buffer with antibodies and stained for 3 hours at room temperature with gentle shaking. […] After staining, cells were washed twice with FACS buffer, and the samples were acquired on a BD LSRFortessa™ X20 flow cytometers (BD Biosciences, San Jose, Calif.) and analyzed with FLowJo V10 software (FlowJo, Ashland, Oreg.). The mean fluorescence intensity (MFI) of pSTAT5 as a measure of the amount of phosphorylated STAT5 in the CD3+ T cell population from vehicle or Compound 118 treated animals was reported.

[3] = test system: Granzyme B+ cells within the CD8+ T cell population; test: Granzyme B staining of CD8 T cells flow cytometry assay in mouse spleen; type: in vivo
Method: Granzyme B Staining of CD8 T Cells Flow Cytometry Assay in Mouse Spleen. Mice were sacrificed on day 8 of dosing with Compound 118 (2 hours after the 16th dose) and spleens were excised. Spleens were dissociated with a gentleMACS dissociator (Miltenyi Biotec, Bergisch Gladbach, Germany), red blood cells lysed, and single cell suspensions were prepared. Splenocytes were stained with Zombie UV™ Fixable Viability kit (Biolegend, San Diego, Calif.) diluted in Dulbecco's PBS for 10 minutes at room temperature to exclude dead cells followed by staining for surface markers for 45 minutes on ice using the following flow cytometry antibodies diluted in autoMACS Running Buffer (Miltenyi Biotec, Bergisch Gladbach, Germany): Brilliant Violet 510-labeled anti-CD45, Brilliant Ultraviolet 395-labeled anti-CD3, Brilliant Violet 786-labeled anti-CD4, APC/Cy7-labeled anti-CD8. […] After staining, cells were washed twice with autoMACS Running Buffer, and the samples were acquired on a BD LSRFortessa™ X20 flow cytometers (BD Biosciences, San Jose, Calif.) and analyzed with FLowJo V10 software (FlowJo, Ashland, Oreg.). […]

[4] = test system: IP10; test: Cytokine measurement in mouse plasma; type: in vivo
Method: Cytokine Measurement in Mouse Plasma. Whole blood was drawn into EDTA powder coated tubes by cardiac puncture from mice on day 8 of dosing with Compound 118 (2 hours after the 16th dose) and plasma was prepared by centrifugation. Cytokines in plasma were measured using the Th1/Th2 Cytokine & Chemokine 20-Plex Mouse ProcartaPlex™ Panel 1 (Invitrogen, Carlsbad, Calif.). IP10 levels (pg/mL) in vehicle or Compound 118 treated animals were reported.

[5] = 10 mg/kg/dose oral BID for 21 days
[6] = 10 mg/kg/dose oral BID, day 8 of dosing (2 hours post 16th dose), value ± SEM

CC(C)CCN[C@@H]1CCc2cc(O)c(N3CC(=O)NS3(=O)=O)c(F)c2C1 (single isomer, unassigned) [Compound 118]
mice that achieved complete cures [1, 5]: 70%
tolerability [1, 5]: well tolerated, without obvious adverse health events
Tumor Growth Inhibition (Max) compared to vehicle [%] ([1]; 10 mg/kg/dose oral BID for 21 days, C57Bl/6 mice): 94%
tumor response observed ([1]; within 7-10 days of treatment): apparent tumor stasis and shrinkage
pSTAT5 level [MFI] in CD3+ T cells from IL2 stimulated whole blood [2, 6]: 1261±97 MFI
pSTAT5 levels in whole blood T cells, fold higher than vehicle ([2]; day 8 of dosing, ex vivo IL2 stimulation): 1.6 fold
% GzB+ cells within splenic CD8+ T cells [3, 6]: 4.3±0.9%
frequency of granzyme B producing cells within CD8+ T population in spleen, fold higher than vehicle ([3]; day 8 of dosing): 3.9 fold
IP10 in plasma [4, 6]: 256 ± 30 pg/mL
IP10 levels in plasma, fold higher than vehicle ([4]; day 8 of dosing): 1.7 fold
